Here are results for 1 compound from PMC8678048 (Frontiers in Microbiology, 2021).

The target of the assay is ASFV pS273R protease (African swine fever virus, UniProt Q00946). Type of assay: biochemical.

The structures appear in SMILES notation. Positions of bridges follow the written chain, without caps; N, C: chain ends. Residues, ends and D or L forms follow the SMILES beside them.

ASFV pS273R protease, sequence (Q00946 whole entry, looked up): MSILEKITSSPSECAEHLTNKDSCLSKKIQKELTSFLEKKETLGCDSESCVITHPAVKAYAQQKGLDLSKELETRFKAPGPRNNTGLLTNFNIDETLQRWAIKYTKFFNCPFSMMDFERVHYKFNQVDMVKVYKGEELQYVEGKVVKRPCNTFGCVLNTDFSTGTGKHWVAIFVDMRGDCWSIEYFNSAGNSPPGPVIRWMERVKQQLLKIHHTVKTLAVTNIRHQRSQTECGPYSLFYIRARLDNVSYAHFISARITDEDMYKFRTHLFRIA

As for `CC[C@H](C)[C@@H]1NC(=O)CNC(=O)[C@H](CO)NC(=O)[C@@H]2CSSC[C@@H](C(=O)N[C@@H](Cc3ccc(O)cc3)C(=O)O)NC(=O)[C@H](CCCCN)NC(=O)[C@@H]3CSSC[C@H](NC(=O)[C@H](CCC(N)=O)NC(=O)[C@H](Cc4ccc(O)cc4)NC(=O)[C@H](CCC(N)=O)NC(=O)[C@H](CC(N)=O)NC(=O)[C@H](Cc4ccccc4)NC(=O)[C@@H]4CCCN4C(=O)[C@@H](NC(=O)CNC(=O)[C@H](Cc4ccc(O)cc4)NC(=O)CN)CSSC[C@H](NC(=O)[C@H](Cc4ccc(O)cc4)NC(=O)CNC(=O)CNC(=O)[C@H](CCCCN)NC(=O)[C@H](Cc4ccc(O)cc4)NC(=O)CNC(=O)[C@H](CCCNC(=N)N)NC1=O)C(=O)N[C@@H](CCCCN)C(=O)NCC(=O)N[C@@H]([C@@H](C)O)C(=O)N[C@@H](Cc1ccccc1)C(=O)N[C@@H](CCCCN)C(=O)N[C@@H](CCC(N)=O)C(=O)N[C@@H]([C@@H](C)O)C(=O)N3)C(=O)N[C@@H](Cc1c[nH]cn1)C(=O)N[C@@H](CO)C(=O)N[C@@H](Cc1c[nH]cn1)C(=O)N2` [OPTX-1] (H-GYGCPFNQYQCHSHCSGIRGYKGGYCKGTFKQTCKCY-OH; disulfide 4-26, 11-34, 15-36 (inferred); N-terminus and C-terminus assumed), the “mode of inhibition of pS273R protease” value is on record as “competitive inhibitor of the pS273R protease”.
